Data on 69 compounds can be found in the OPERA property sets (Mansouri et al. 2018).

Details in the first data set: not given
`ClC1=C(Cl)C2(Cl)C3C(Cl)OC(Cl)C3C1(Cl)C2(Cl)Cl` (stereo not given): the log10 vapour pressure (mmHg) is -5.53 and the melting point came out at 121 °C.
In the case of `COc1ccc(C=O)cc1OC`, the boiling point stood at 281 °C, the melting point is 43 °C and the ready biodegradability result is listed as “readily biodegradable”.
In turn, `CCCCCCCCCCCCCCCCCC(=O)OCCCCCCCCCCCCCCCC` gave a melting point of 57 °C.
On to `CCSC(C)C`, for which the boiling point worked out at 108 °C and the melting point is -122 °C.
In turn, `C[Si](C)(Oc1ccccc1)Oc1ccccc1` gave a melting point of -23 °C.
`CC(=O)c1ccc(-c2ccccc2)cc1` displayed a boiling point of 326 °C, a log10 Koc (L/kg) of 3.22 and a melting point of 121 °C.
Compound `O=C(c1ccccc1O)N1CCOCC1` returned a melting point of 175 °C.
In turn, `CC1=C[C@@H](O)[C@@H]2C[C@H]1C2(C)C` (racemic) yielded a melting point of 65 °C.
On the same count and under the same terms, under `CCCCOC(=O)C1(O)c2ccccc2-c2ccccc21` stands 71 °C.
Regarding `CCCC(=O)O`, the log10 Henry constant (atm·m³/mol) is -6.27, the log10 vapour pressure (mmHg) amounted to 0.217, the melting point is -5.7 °C and the ready biodegradability result is listed as “readily biodegradable”.
For the compound `Nc1cc(Cl)c(Cl)cc1N`, the melting point worked out at 160 °C.
Compound `Nc1cccc(N)c1N` showed a boiling point of 336 °C and a melting point of 103 °C.
Turning to `O=C(O)C(F)(F)C(F)(F)C(F)(F)C(F)(F)C(F)(F)C(F)(F)C(F)(F)C(F)(F)C(F)(F)C(F)(F)C(F)(F)F`, the boiling point came out at 249 °C, the melting point is 108 °C and the ready biodegradability result was “not readily biodegradable”.
The compound `O=C(c1ccccc1)c1ccccc1O` gave a melting point of 40 °C.
Take `O=C1C2CC=CCC2C(=O)N1SC(Cl)(Cl)Cl` (stereo not given): the log10 Koc (L/kg) is 2.3, the log10 vapour pressure (mmHg) is -7.05, the melting point was 178 °C and the ready biodegradability result is listed as “not readily biodegradable”.
On to `Oc1c(Cl)c(Cl)c(Cl)c(Cl)c1Cl`, for which the boiling point was 310 °C, the log10 Henry constant (atm·m³/mol) is -7.61, the log10 Koc (L/kg) came to 4.3 and the log10 vapour pressure (mmHg) was -3.96. Moreover, the melting point came out at 174 °C and the ready biodegradability entry was “not readily biodegradable”.
`O=C[O-].[NH4+]` returned a melting point of 116 °C.
Regarding `Clc1ccc2cccc(Cl)c2c1`, the boiling point is 286 °C and the melting point worked out at 63.5 °C.
Compound `C1=C(c2ccccc2)CCCC1` yielded a boiling point of 252 °C and a melting point of -11 °C.
`CCCCC(CC)CCC` (stereo not given): the boiling point turned out to be 164 °C.
On to `NC(N)=O`, for which the log10 Koc (L/kg) is 0.15, the log10 vapour pressure (mmHg) was -4.92 and the ready biodegradability result was “readily biodegradable”.
`Nc1cc([N+](=O)[O-])ccc1O`: the melting point came to 144 °C.
Same read-out and setting: as for `CCn1cc(C(=O)O)c(=O)c2cnc(N3CCCC3)nc21`, the figure is 315 °C.
In the case of `CCC(C)C(CC)C(C)C` (stereo not given), the boiling point came to 162 °C.
Consider `Nc1ccccc1O`, for which the ready biodegradability entry is “not readily biodegradable”.
With `Nc1ccc(-c2ccccc2N)cc1`, the boiling point stood at 363 °C and the melting point came to 54.5 °C.
The matching figures for `CC(C)(C1CCCCC1)C1CCCCC1`: 286 °C and 15.6 °C.
The compound `COC(=O)C(F)(F)C(F)(F)F` came in with a boiling point of 59.5 °C.
In turn, `CC1CC(OC(=O)C(O)c2ccccc2)CC(C)(C)C1` (stereo not given) came in with a melting point of 56 °C.
For `Cc1ccnc(Cl)c1`, the boiling point was determined as 192 °C and the melting point worked out at 115 °C.
The matching figures for `Cc1cc(C)c(Br)cc1C`: 234 °C and 73 °C.
Take `CC(=O)CF`: the boiling point was 77 °C and the log10 vapour pressure (mmHg) is 1.8.
The compound `CCC(O)CCC(F)(F)F` (stereo not given) showed a boiling point of 141 °C.
On to `Cc1ccc(O)c(I)c1`, for which the melting point came out at 35 °C.
`CC(C)N(C(=O)COc1nnc(C(F)(F)F)s1)c1ccc(F)cc1` showed a log10 vapour pressure (mmHg) of -6.17 and a melting point of 76 °C.
Regarding `CCCC(CCC)C(N)=O`, the melting point amounted to 125 °C.
Same read-out and setting: under `[N-]=[N+]=Nc1ccc(Br)cc1` stands 20 °C.
As to `C[Si](C)(C)C#C[Si](C)(C)C`, the boiling point amounted to 134 °C and the melting point was 26 °C.
`O=C(O)CCCCCCCCCCC(=O)O`: the melting point worked out at 128 °C.
Still for that read-out and setting: as for `BrC(c1ccccc1)(c1ccccc1)c1ccccc1`, the figure is 153 °C.
In the case of `Nc1cccc2c1C(=O)c1ccccc1C2=O`, the log10 vapour pressure (mmHg) was -8.3, the melting point amounted to 254 °C and the ready biodegradability result is “not readily biodegradable”.
As to `Cc1cc(=O)cc(C)o1`, the boiling point stood at 251 °C and the melting point turned out to be 132 °C.
In turn, `CCCCCCCOc1ccc(O)cc1` gave a melting point of 61.5 °C.
As to `CC(C)CCN(CCC(C)C)CCC(C)C`, the boiling point came out at 235 °C.
In turn, `CCCC[P+](CCCC)(CCCC)Cc1ccc(Cl)cc1Cl.[Cl-]` registered a log10 vapour pressure (mmHg) of -6.15 and a melting point of 117 °C.
Take `O=[N+]([O-])c1c(Cl)c(Cl)c(Cl)c(Cl)c1Cl`: the boiling point came to 328 °C, the log10 Koc (L/kg) was 3.98, the log10 vapour pressure (mmHg) was -4.3 and the melting point was found to be 144 °C. In addition, the ready biodegradability entry is “not readily biodegradable”.
`CCOP(=O)(OCC)SCc1ccccc1` gave a log10 Koc (L/kg) of 2.4.
Regarding `BrC1c2ccccc2-c2ccccc21`, the melting point was 104 °C.
Take `O=C(O)Cc1sc(-c2ccccc2)nc1-c1ccc(Cl)cc1`: the melting point was determined as 162 °C.
Same read-out and setting: under `C[C@H](CCC(=O)O)[C@H]1CC[C@H]2[C@@H]3CCC4CCCC[C@]4(C)[C@H]3CC[C@]12C` (stereo not given in full) stands 164 °C.
Still for that read-out and setting: as for `CN(C)C(=O)Oc1cccc([N+](C)(C)C)c1.COS(=O)(=O)[O-]`, the figure is 143 °C.
The compound `O=C1c2ccccc2-c2ccccc21` returned a boiling point of 342 °C and a melting point of 84 °C.
For `C=CC(=O)OC`, the boiling point came out at 80.2 °C, the log10 vapour pressure (mmHg) amounted to 1.94, the melting point was -76.5 °C and the ready biodegradability entry is reported as “readily biodegradable”.
`CCc1nc(C)cnc1C` displayed a boiling point of 180 °C.
The same measure, in the same setting: under `CCC[Si](C)(C)C` stands 89 °C.
In turn, `CC(=O)[C@H]1CC[C@H]2[C@@H]3C[C@H](C)C4=CC(=O)CC[C@]4(C)[C@H]3[C@@H](O)C[C@]12C` gave a melting point of 156 °C.
Turning to `CCCCCCOC(=O)CCCCC(=O)OCCCCCC`, the log10 vapour pressure (mmHg) is -5.54.
On to `Cc1c(C(N)=O)cc([N+](=O)[O-])cc1[N+](=O)[O-]`, for which the melting point was 177 °C.
Compound `O=[N+]([O-])c1ccc(N=Nc2ccccc2)cc1` registered a log10 vapour pressure (mmHg) of -5.93 and a melting point of 133 °C.
On to `O=C(Oc1cccc(O)c1)c1ccccc1`, for which the melting point stood at 134 °C and the ready biodegradability result is listed as “readily biodegradable”.
In turn, `Cc1ccc(N(SC(F)(Cl)Cl)S(=O)(=O)N(C)C)cc1` showed a log10 vapour pressure (mmHg) of -5.82 and a melting point of 96 °C.
With `COc1ccc(CCCO)cc1`, the melting point amounted to 26 °C.
For the compound `C=C(C)C(=O)OCC`, the boiling point is 117 °C and the log10 vapour pressure (mmHg) is 1.31.
In the case of `C=C(C)C(=O)Nc1ccc(Cl)c(Cl)c1`, the melting point worked out at 128 °C.
Consider `FC(F)(F)N1C(F)(F)C(F)(F)OC(F)(F)C1(F)F`, for which the boiling point stood at 51 °C and the melting point was -80 °C.
Take `Cc1ccccc1NC(=N)Nc1ccccc1C`: the melting point was 179 °C.
Still for that read-out and setting: as for `O=[N+]([O-])c1ccc2cccnc2c1`, the figure is 132 °C; as for `CO[C@H]1C=CO[C@@]2(C)Oc3c(C)c(O)c4c(O)c(cc(O)c4c3C2=O)NC(=O)C(C)=CC=C[C@H](C)[C@H](O)[C@@H](C)[C@@H](O)[C@@H](C)[C@H](OC(C)=O)[C@@H]1C`, 300 °C.
The compound `CCCCCCC(C)O` (racemic) displayed a boiling point of 179 °C and a melting point of 3.5 °C.

Staying with this data set, now noted: fish.
Consider `O=C1C2CC=CCC2C(=O)N1SC(Cl)(Cl)Cl` (stereo not given), for which the log10 BCF turned out to be 1.98.
In the case of `Oc1c(Cl)c(Cl)c(Cl)c(Cl)c1Cl`, the log10 BCF amounted to 2.66 and the log10 biotransformation half-life (days) is -0.2.
Compound `Nc1cccc2c1C(=O)c1ccccc1C2=O` came in with a log10 BCF of 1.98 and a log10 biotransformation half-life (days) of -0.59.
The matching figures for `O=[N+]([O-])c1c(Cl)c(Cl)c(Cl)c(Cl)c1Cl`: 2.74 and -0.17.

One may read the melting point as the temperature of the solid-liquid transition. The boiling point is the temperature of boiling at a given pressure.
